Reference: article PMC11434480, “Discovery and Optimization of Ergosterol Peroxide Derivatives as Novel Glutaminase 1 Inhibitors for the Treatment of Triple-Negative Breast Cancer” (Molecules, 2024)

Experiments:
MDA-MB-231 cells [1] = test: Colony formation assay; format: cell-based; conditions: Homo sapiens, MDA-MB-231 colony formation, vs blank control, read-out: proliferation inhibition rate
Experimental: To explore the inhibitory effect of 3g on the proliferation of MDA-MB-231 cells, we treated MDA-MB-231 cells with different concentrations of 3g and EP.
MDA-MB-231 cells (1000 cells/well) were seeded into a 6-well plate with 2 mL L–15 culture medium and incubated at 37 °C for 24 h. Following this process, different concentrations of 3g or EP were added and incubated for an additional 24 h before the culture medium was replaced. The cells then continued to be cultured for two weeks, with the culture medium being changed twice a week. After two weeks, the cell colonies were washed with PBS, fixed using a 4% paraformaldehyde solution (Beyotime, Shanghai, China), and subsequently stained with a 0.05% crystal violet solution (Beyotime, Shanghai, China).

MDA-MB-231 = test: MTT antiproliferative assay, MDA-MB-231; format: cell-based, human
Experimental: (§2) The in vitro antiproliferative activity of the novel EP derivatives (1a–h, 2a–h, 3a–h, and 4a–h) was evaluated on four different human cancer cell lines (A549, HepG2, MCF-7, and MDA-MB-231) using an MTT assay.
(§3) Cells containing 10% fetal bovine serum (FBS; WISENT, Nanjing, China) were cultured in an L-15 culture medium (L-15, BOSTER, Wuhan, China) in an incubator at 37 °C. The cells were then inoculated into 96-well plates at a density of 5 × 10^3/well, cultured in 100 μL L-15 medium for 24 h, and incubated with the compound to be tested for 48 h. Next, 20 μL of MTT (5 mg/mL) solution was added and incubated at 37 °C for 4 h away from light. A resorption culture medium was then supplemented with 150 μL DMSO per well. The absorbance was measured at 570 nm using an enzymometer (SAFIRE2, Tecan, Swiss Confederation, Männedorf, Switzerland). The cytotoxic activity was presented in terms of half the inhibition rate.

A549 = test: MTT antiproliferative assay, A549; format: cell-based, human; conditions: Homo sapiens, A549, 48 h, mean of three experiments ± SD
Experimental: as §2, §3

4T1 cells = test: 4T1 transplanted tumor model in BALB/c mice
human GLS1 = target: T1, human GLS1 (Homo sapiens, UniProt O94925); test: GLS1 inhibitor screening kit in MDA-MB-231 cells; format: cell-based; conditions: 48 h, read-out: GLS1 inhibition IC50
T1 sequence (O94925 55-669): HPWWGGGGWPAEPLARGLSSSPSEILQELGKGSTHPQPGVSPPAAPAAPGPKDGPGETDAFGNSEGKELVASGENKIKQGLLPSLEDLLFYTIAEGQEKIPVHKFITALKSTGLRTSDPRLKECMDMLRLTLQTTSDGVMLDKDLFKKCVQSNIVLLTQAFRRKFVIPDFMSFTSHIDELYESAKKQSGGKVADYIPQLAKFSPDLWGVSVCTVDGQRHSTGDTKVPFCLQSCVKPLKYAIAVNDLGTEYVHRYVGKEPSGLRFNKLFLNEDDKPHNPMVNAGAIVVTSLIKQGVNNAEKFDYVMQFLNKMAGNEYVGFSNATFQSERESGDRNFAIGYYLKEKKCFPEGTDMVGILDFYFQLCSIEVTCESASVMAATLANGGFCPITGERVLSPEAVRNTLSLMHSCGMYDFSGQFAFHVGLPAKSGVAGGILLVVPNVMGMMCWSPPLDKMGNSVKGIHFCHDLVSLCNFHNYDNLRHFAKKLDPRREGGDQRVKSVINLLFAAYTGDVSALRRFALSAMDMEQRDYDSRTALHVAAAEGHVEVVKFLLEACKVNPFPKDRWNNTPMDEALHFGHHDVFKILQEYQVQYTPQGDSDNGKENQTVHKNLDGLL
Experimental: The GLS1 inhibitory activity of compound 3g in MDA-MB-231 cells was evaluated using a GLS1 inhibitor screening kit.
MDA-MB-231 cells were cultured for 24 h and then incubated with different concentrations of 3g or 0.1%DMSO for 48 h and washed with PBS 1–2 times. The cells were then collected, subjected to ultrasound in an ice bath for 5 min, and centrifuged at 4 °C and 1200 g for 15 min. Next, the GLS1 activity in human GLS1 was evaluated according to the manufacturer’s guidelines using a GLS1 screening kit (Sangon Biotech #D799306, Shanghai, China) in a 96-well plate (Corning # 351172, New York, NY, USA).

MCF-7 = test: MTT antiproliferative assay, MCF-7; format: cell-based, human; conditions: Homo sapiens, MCF7, 48 h, mean of three experiments ± SD
Experimental: as §2, §3

MDA-MB-231 cells [2] = test: ROS assay (DCFH-DA, confocal microscopy and flow cytometry); format: cell-based, human; conditions: MDA-MB-231, different concentrations, 48 h
Experimental: Excessive ROS in tumor cells can induce tumor cell apoptosis. Nevertheless, the ROS levels in tumor cells were often influenced by glutamine. Thus, the regulation of glutamine metabolism was crucial for ROS homeostasis. In this study, laser confocal microscopy and flow cytometry were employed to detect the ROS level.
MDA-MB-231 cells were inoculated in 24-well plates at a density of 8 × 10^3 cells per well and incubated with different concentrations of 3 g or 0.1% DMSO for 48 h. The cells were washed with PBS 1–2 times. The cells were then incubated at 37 °C for 20 min with reference to a DCFH-DA fluorescent probe kit (Keygen Company, Nanjing, China) and washed with a serum-free medium 1–2 times. The ROS levels were observed via laser confocal microscopy (LSM710, Zeiss, Oberkochen, Germany) or detected with flow cytometry (FACS Calibur, Becton, Dickinson and Company, Franklin Lakes, NJ, USA).

MDA-MB-231 cells [3] = test: Annexin V-FITC/PI apoptosis assay (flow cytometry); format: cell-based, human; conditions: Annexin V-FITC/PI double staining, 48 h
Experimental: (§1) To determine whether the decrease in MDA-MB-231 cell viability observed after 3g treatment was related to apoptosis, we treated MDA-MB-231 cells with 3g and assessed the changes in apoptosis.
An Annexin V FITC/PI apoptosis detection kit (Keygen Company, Nanjing, China) was employed to identify apoptotic cells. Briefly, MDA-MB-231 cells were subjected to treatment with varying concentrations of 3g or 0.1% DMSO and incubated at 37 °C for 48 h. Subsequently, the cells were harvested and resuspended in PBS at a concentration of 1 × 10^5 cells/mL. Following centrifugation at 2000 rpm/min for 5 min, 500 μL binding buffer, 5 μL Annexin V FITC, and 5 μL propidium iodide (PI) were added. The mixture was then incubated at room temperature in the absence of light for 20 min. Finally, the samples were analyzed using FACSCalibur flow cytometry (Becton, Dickinson and Company, Franklin Lakes, USA).

MDA-MB-231 cells [4] = test: Western blot of apoptosis proteins; format: cell-based, human; conditions: MDA-MB-231, 48 h
Experimental: as §1
MDA-MB-231 cells were subjected to treatment with different concentrations of 3g or 0.1% DMSO for 48 h. Subsequently, the cells were gathered, and the total protein was extracted by adding protease inhibitors and phosphatase inhibitors along with 1 × RIPA lysis buffer (Beyotime Company). The quantification of the extracted protein was carried out using a BCA kit (ComWin Biotech Company, Beijin, China). The extracted total protein, with an amount of 20 μg/well, underwent SDS–polyacrylamide gel electrophoresis (SDS-PAGE, provided by BioRad Laboratories located in Hercules, CA, USA). The protein was then wet-transferred to a PVDF membrane. Next, GLS1, Bcl-2, Bax, Cyt C, caspase-9, cleaved caspase-9, caspase-3, cleaved caspase-3, and GAPDH were incubated at 4 °C overnight. Subsequently, the secondary isotype-specific antibody, which was labeled with horseradish peroxidase, was obtained from Cell Signaling Technology. The color was developed with an ECL luminescent solution (Meilun Biotech Company, Dalian, China) and detected using a gel imager (ChemiDoc MP, BioRad Laboratories, CA, USA).

MDA-MB-231 cells [5] = format: cell-based, human; conditions: 2, 4 and 8 μM, 48 h
HepG2 = test: MTT antiproliferative assay, HepG2; format: cell-based, human; conditions: Homo sapiens, HepG2, 48 h, mean of three experiments ± SD
Experimental: as §2, §3

[6] = 25 and 50 mg/kg/2 days, intraperitoneal, 14 days

COc1ccc(NC(=O)CCCC(=O)OC2CCC3(C)C4CCC5(C)C(C(C)C=CC(C)C(C)C)CCC5C45C=CC3(C2)OO5)cc1 (stereo not drawn) [Compound 3g]
inhibition at 2 µM (MDA-MB-231 cells [1]): 56.3% | IC50 (MDA-MB-231; Homo sapiens, MDA-MB-231, MTT, 48 h, mean of three experiments ± SD): 3.2 ± 0.29 µM | fold higher activity than EP against MDA-MB-231 (MDA-MB-231; ratio of IC50 values, EP vs compound): 5.4 fold | IC50 (A549): 13.5 ± 1.14 µM | effect on body weights of the mice (4T1 cells; [6]): no significant effect | tumor volume and tumor weight (4T1 cells; [6]): significantly reduced | tumor growth (4T1 cells; 25 and 50 mg/kg/2 days, intraperitoneal, 14 days, vs blank control): effectively inhibited | therapeutic effect in mouse model of breast cancer (4T1 cells; dose of 50 mg/kg): remarkable therapeutic effects | toxicity in mouse model of breast cancer (4T1 cells; dose of 50 mg/kg): no apparent toxicity | histopathological changes in heart, liver, spleen, lungs and kidneys (HE staining) (4T1 cells; tumor-bearing mice, 14 days treatment): no histopathological changes | IC50 (human GLS1): 3.77 µM | IC50 (MCF-7): 4.57 ± 0.62 µM | intracellular ROS level (MDA-MB-231 cells [2]): significantly elevated the intracellular ROS level | apoptosis of MDA-MB-231 cells (MDA-MB-231 cells [3]): increased significantly | expression of Bax, Cyt C, cleaved caspase-9 and cleaved caspase-3 (MDA-MB-231 cells [4]): significantly upregulated | expression of Bcl-2 (MDA-MB-231 cells [4]): decreased the expression | glutamate production in MDA-MB-231 cells (MDA-MB-231 cells [5]): reduced the production of glutamate in MDA-MB-231 cells in a dose-dependent manner | IC50 (HepG2): 15.5 ± 0.63 µM
